Patent publication US11013690B2, “Esterification/saponification-based method for liposomal encapsulation of hydrophilic glucuronides” (priority 2016, dated 2021)

Tests used:
[1] = pH stability of 9AC-GmE (HPLC); format: physicochemical
Method: FIG. 6 illustrates the stability of 9-aminocamptothecin glucuronide methylester (9AC-GmE) at acidic pH. 9AC-GmE stability was monitored over time at 75° C., at pH 5. Quantification was done by HPLC at excitation and emission of 370 and 460 nm, respectively. (Abbreviations: 9AC, 9-aminocamptothecin; 9AC-G, 9-aminocamptothecin glucuronide; 9AC-GmE, methylester form of 9AC-G). n=3. Error bars, SD.
FIG. 7 illustrates the conversion of 9-aminocamptothecin glucuronide methylester (9AC-GmE) to 9-aminocamptothecin glucuronide (9AC-G) at basic pH. 9AC-GmE conversion to 9AC-G was monitored over time at 75° C., at pH 8.5. Quantification was done by HPLC at excitation and emission of 370 and 460 nm, respectively. n=3. Error bars, SD.
The behavior of 9AC-GmE was investigated at different pH and temperatures.

[2] = Octanol-to-water partitioning assay; format: physicochemical; conditions: 1-octanol / citric acid pH 5, room temperature
Method: FIG. 4 illustrates the octanol to water distribution of glucuronides and glucuronide-mE. Glucuronides and glucuronide-mE were incubated overnight in immiscible aqueous and organic phases (citric acid pH 5 and 1-octanol) under gentle shaking at room temperature. Samples from each phase were analyzed to characterize the distribution of the compounds. n=3-5
FIG. 5 illustrates the Log P of glucuronides and glucuronide-mE compounds in each phase of 1-octanol and citric acid pH 5 following the formula: log Poctanol/water=log ([solute]octanol/[solute]water). n=3-5. Error bars, SD
9-aminocamptothecin glucuronide (9AC-G), 5,6-dihydro-4H-benzo[de]quinoline-camptothecin-β-D-glucuronide (BQC-G) and 4-methylumbelliferyl-β-D-glucuronide (4MU-G) can be incubated in methanol in the presence of a strong acid (sulfuric acid) as a catalyzer (FIG. 2).
Distribution of the different compounds were measured by dilution in a 1:1 volume of octanol and 100 mM citric acid buffer at pH 5 (FIG. 4). The solutions were gently stirred for 24 hours at room temperature, spun down at 2,500×g and glucuronides or glucuronide-mE in each phase was quantified by HPLC and the partition coefficients were calculated as log Poctanol/water=log ([solute]octanol/[solute]water) ([…]).

MDA-MB-468 tumors = experiment: In-vivo anti-tumor activity, MDA-MB-468 subcutaneous tumors; set-up: species or system NOD/SCID mice; conditions: i.v. weekly x4, free 9AC 2 mg/kg, free 9AC-G 10 mg/kg; for mice survival: 9AC-G liposomes 10 mg/kg
Text: FIG. 41 illustrates the in-vivo anti-tumor activity of liposomal 9AC-G. NOD/SCID mice were inoculated subcutaneously with 10^7 MDA-MB-468 cells. When tumors reached 75 to 100 mm^3 the treatment started at one injection per week for a total of 4 treatments. Figure represents the tumor volume evolution. n=7, Error bars: SD. Differences in tumor sizes between groups were examined for statistical significance using one-way ANOVA followed by Dunnettt's multiple comparisons. Stars indicate significance; n.s=non-significant and p<0.0001 (***)
FIG. 42 illustrates the mice survival after treatment with 9AC, 9AC-G or 9AC-G liposomes. n=7, Error bars, SD
FIG. 44 illustrates the tumor growth of MDA-MB-468 human breast cancer cells (10^7 cells in 100 μL PBS) injected subcutaneously in twelve to sixteen-week old female NOD/SCID immunodeficient mice. When tumors reached sizes from 75 mm^3 to 100 mm^3, groups of 7 mice were treated at weekly intervals for four times with intravenous injections of 9AC-G (10 mg/kg) or doxorubicin liposomes (Doxisome®, 1 mg/kg). n=7, Error bars, SD. Differences in tumor sizes between groups were examined for statistical significance using one-way ANOVA followed by Dunnettt's multiple comparisons. Stars indicate significance; p<0.001 (**) and p<0.0001 (***)
Next, in an in-vive model of breast cancer in NOD/SCID mice, 10^7 MDA-MD468 cells were inoculated subcutaneously per mouse. The treatment was started when the tumors reached an average size of 75 to 100 mm^3. Mice were intravenously injected with 9AC-G liposomes at 10 mg/kg, free parental 9AC (2 mg/kg), or free 9AC-G (10 mg/kg). […] Appreciably, low toxicity was observed and the tumors were undetectable when treated with 9AC-G liposomes after 4 treatments for 6 over 7 mice, as shown in FIG. 41. […] We observed that the amount of activated parental drug 9AC was over 30 folds higher in the tumor than in the blood 24 hours after injection of 9AC-G liposomes (FIG. 43). This phenomenon is likely due to the enhanced permeability and retention effect (EPR) by which nanoparticles accumulate and are retained in tumor through leaky blood tumor vasculature.

[3] = Pharmacokinetics of free vs liposomal 9AC-G in mice; format: in vivo, NOD/SCID mice; conditions: 25 mg/kg intravenously, 9AC-G in serum by HPLC
Method: FIG. 39 illustrates the pharmacokinetics in mice of free 9AC-G compared to liposomal 9AC-G. A dose of 25 mg/kg of either free 9AC-G or liposomal 9AC-G was injected intravenously by the tail of NOD/SCID mice. Blood samples were collected at different times and the concentration of 9AC-G was determined by HPLC. n=3, Error bars, SD.
This example relates to a test of whether the liposomal formulation of 9AC-G could display prolonged pharmacokinetics when compared to free 9AC-G. Free and liposomal 9AC-G were delivered intravenously at 25 mg/kg to 12 to 16 weeks old female mice. The total serum concentrations of 9AC-G were monitored by collecting blood samples in which the plasma was isolated from the red blood cells by centrifugation. The serum proteins were precipitated in acetonitrile:methanol:0.2 M trichloroacetic acid (2:2:1, vol:vol mixture). Samples were centrifuged to eliminate precipitated proteins and diluted in buffer containing 1% triton X-100 to lyse the liposomes and analyze 9AC-G quantities by HPLC.

[4] = test system: HCC36 human hepatocellular carcinoma cells; experiment: Effect of human serum albumin on toxicity to HCC36 cells; format: cell-based; conditions: HCC36, human serum albumin 40 mg/mL, 24 hours, 3H-thymidine incorporation
Method: FIG. 35 illustrates the neutralizing effect of human serum albumin on free 9AC-G. Human hepatocellular carcinoma cells (HCC36) were exposed to free 9AC-G with or without human serum albumin (40 mg/mL) for 24 hours. Cell proliferation was observed by ^3H-thymidine incorporation assay. Human serum albumin inhibits the potency of free 9AC-G that is not loaded into liposomes. n=3, Error bars, SD.
FIG. 36 illustrates the inability of human serum albumin to neutralize 9AC-G after liposomal loading. Human hepatocellular carcinoma cells (HCC36) were exposed to liposomal 9AC-G with or without human serum albumin (40 mg/mL) for 24 hours. Cell proliferation was observed by ^3H-thymidine incorporation assay.
Anticancer activity of liposomes loaded with glucuronide-mE to encapsulate glucuronide can be assessed in-vitro or in-vivo. In an in-vitro assay, cancer cell lines can be seeded in wells or plates and various concentrations of liposomal glucuronide can be applied to the cells for a period of time, such as 24 hours, and cell killing can be assayed. Tritiated thymidine can be used to assay cell proliferation. […] Liposomal doxorubicin and liposomal 9AC-G toxicities were assessed with 3 human colon cancer cells (LS174T, HT29, and HCT16), 3 human lung cancer cells (CL1-5, NCI-H2170, and SK-MES-1) and 1 human breast cancer cells (MDA-MB-468). […]

human beta-glucuronidase = target: T1, human beta-glucuronidase (Homo sapiens, UniProt P08236); experiment: Regeneration of parental drug by beta-glucuronidase at pH 4.5; format: biochemical; conditions: pH 4.5 to mimic lysosomes
T1 sequence (P08236 23-651): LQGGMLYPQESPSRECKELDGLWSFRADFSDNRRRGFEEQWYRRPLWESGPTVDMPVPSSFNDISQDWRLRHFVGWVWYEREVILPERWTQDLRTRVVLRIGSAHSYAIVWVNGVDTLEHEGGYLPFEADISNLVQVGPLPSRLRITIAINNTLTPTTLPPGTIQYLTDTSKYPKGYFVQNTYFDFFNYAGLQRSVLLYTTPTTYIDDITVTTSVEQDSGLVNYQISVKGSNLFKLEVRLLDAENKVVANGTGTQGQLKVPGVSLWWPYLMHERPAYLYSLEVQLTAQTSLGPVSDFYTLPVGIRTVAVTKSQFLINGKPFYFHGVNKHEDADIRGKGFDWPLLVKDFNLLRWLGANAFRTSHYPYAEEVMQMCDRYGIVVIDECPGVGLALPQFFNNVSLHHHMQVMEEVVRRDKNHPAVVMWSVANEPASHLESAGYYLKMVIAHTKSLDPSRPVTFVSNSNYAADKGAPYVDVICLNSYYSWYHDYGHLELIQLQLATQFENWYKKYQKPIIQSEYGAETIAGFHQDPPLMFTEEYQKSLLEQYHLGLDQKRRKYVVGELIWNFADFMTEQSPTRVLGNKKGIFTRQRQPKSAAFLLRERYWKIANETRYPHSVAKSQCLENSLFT
Method: FIG. 28 illustrates the reversibility of the conjugation of the glucuronide residue to a parental compound. Here, 9AC was analyzed by HPLC before (1.) and after glucuronide conjugation (2.). […] 9AC-G incubated with human enzyme beta-glucuronidase at pH 4.5 to mimic the lysosomal conditions, could regenerate the original parental drug 9AC (5.). (RFU=relative fluorescent units)
In real conditions, it is extrapolated that liposomal glucuronides can be uptake by cells and that the liposomes can release the glucuronide inside lysosomes after degradation as illustrated in FIG. 29. Illustrations of compound regeneration are provided using 2 examples: 9AC-G (linked by self-immolative chemical linker that is removed upon enzyme hydrolysis, FIG. 30) and fluorescein (directly linked to glucuronide residues, FIG. 31). Effective amounts of 9AC were found in the medium of HCC36 and MDA-MB468 human cancer cells after addition of 9AC-G liposomes. On the other hand, when no cells were present, no 9AC was found, meaning that the regeneration of 9AC was dependent on the cells (FIG. 32). […] To further illustrate the parental compound regeneration ability, we incubated HCC36 cells engineered with LDL-R/anti PEG receptors with liposomal fluorescein-di-G (non-fluorescent). At early time, the liposomes (red) were taken up by the cells and started to colocalize with the lysosomes (magenta). […]

Compound | partition versus corresponding glucuronide [2] | mice survival (MDA-MB-468 tumors) | effect on tumor growth (MDA-MB-468 tumors) | further results
9-aminocamptothecin glucuronide methylester [9AC-GmE] | increased partition into an organic phase |  |  | stability of methylester group at basic pH (saponification to 9AC-G) ([1]; basic pH (8.5), 75° C.): easily is hydrolyzed; stability at acidic pH ([1]; pH 5, 75° C.): very stable
CC[C@@]1(O)C(=O)OCc2c1cc1n(c2=O)Cc2cc3c(N)cccc3nc2-1 [9AC, 9-aminocamptothecin, reference compound] |  | not | little effect on the tumor growth | 
COC(=O)C1OC(Oc2ccc3c(C)cc(=O)oc3c2)C(O)C(O)C1O (stereo not drawn) [4MU-GmE] | increased partition into an organic phase |  |  | 
9-aminocamptothecin glucuronide [9AC-G] |  | not | little effect on the tumor growth | initial half-life [3]: 9.3 min; terminal half-life [3]: 38.6 min; effect of human serum albumin on toxicity [4]: toxicity is suppressed; conversion to parental drug by beta-glucuronidase (human beta-glucuronidase): completely converted to 9AC
